Assay results: paper PMC9404792, “Synthesis and Antioxidant Properties of HeteroBisNitrones Derived from Benzene Dicarbaldehydes” (Antioxidants, 2022)

Target: T1, soybean lipoxygenase (LOX) (Glycine max, UniProt P08170)
T1 construct: gene LOX1.1
T1 sequence (P08170 1-839): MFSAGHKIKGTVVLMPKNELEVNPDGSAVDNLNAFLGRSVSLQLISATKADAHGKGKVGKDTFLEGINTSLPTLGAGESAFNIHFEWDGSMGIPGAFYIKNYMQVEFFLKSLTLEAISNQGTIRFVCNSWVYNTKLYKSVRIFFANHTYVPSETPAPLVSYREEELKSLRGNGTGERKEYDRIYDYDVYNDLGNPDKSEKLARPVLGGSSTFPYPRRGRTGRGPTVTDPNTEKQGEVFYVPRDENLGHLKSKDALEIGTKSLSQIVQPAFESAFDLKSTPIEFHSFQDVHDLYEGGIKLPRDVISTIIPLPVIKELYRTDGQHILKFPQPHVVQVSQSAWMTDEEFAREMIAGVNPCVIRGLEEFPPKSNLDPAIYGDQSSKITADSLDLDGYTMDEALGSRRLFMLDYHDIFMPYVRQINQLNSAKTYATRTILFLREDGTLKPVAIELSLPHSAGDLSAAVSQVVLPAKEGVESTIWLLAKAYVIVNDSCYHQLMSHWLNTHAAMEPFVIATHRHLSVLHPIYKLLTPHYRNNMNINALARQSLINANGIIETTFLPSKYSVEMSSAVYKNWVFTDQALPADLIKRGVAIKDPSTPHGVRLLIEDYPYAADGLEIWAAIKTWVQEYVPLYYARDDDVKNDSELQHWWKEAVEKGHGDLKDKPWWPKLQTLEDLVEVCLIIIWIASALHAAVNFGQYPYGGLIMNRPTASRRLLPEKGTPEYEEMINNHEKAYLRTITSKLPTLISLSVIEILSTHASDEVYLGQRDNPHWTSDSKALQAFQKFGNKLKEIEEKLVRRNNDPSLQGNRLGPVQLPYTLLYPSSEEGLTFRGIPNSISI
Test: UV assay at […] nm of sodium linoleate conversion to 13-hydroperoxylinoleic acid
Format: biochemical
Conditions: read-out: LOX Inhibition (% or IC50 [μM])

Row | IC50 [µM] | SMILES
1 | 82.5 | C/[N+]([O-])=C/c1ccccc1/C=[N+](\[O-])Cc1ccccc1 [hBN8, (Z)-N-Benzyl-1-(2-((Z)-(methyloxidoazaneylidene)methyl)phenyl)methanimine oxide]
2 | 57.5 | CC(C)(C)/[N+]([O-])=C/c1ccccc1/C=[N+](\[O-])Cc1ccccc1 [hBN9, (Z)-N-Benzyl-1-(2-((Z)-(tert-butyloxidoazaneylidene)methyl)phenyl)methanimine oxide]
